Data reported in PubChem BioAssay AID504481 (NMMLSC, 2011).
The source made the active and inactive calls.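 The calls were made as follows: active = fold change below 0.65 in a panel strain, matching the primary screen cutoff; inactive = the rest.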

Assays:
Assay in all cases: GFP reporter expression in transducer deletion yeast, mechanism study for yeast TOR pathway modulator project, S. cerevisiae, transducer mutant strains, GFP-tagged proteins (AID 504481);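 also: 1 = DMSO wells as ratio of mean channel GFP fluorescence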
Details in all cases: S. cerevisiae transducer mutants, GFP-fusion expression, flow cytometry, 3 h
YNL142W = test system: YNL142W
YBR084C-A = test system: YBR084C-A
YCL025C = test system: YCL025C
YCR005C = test system: YCR005C
YKL103C = test system: YKL103C
BY4741 = test system: BY4741

Row | Compound | fold change (YNL142W) | fold change (YBR084C-A) | fold change (YCL025C) | fold change (YCR005C) | fold change (YKL103C) | fold change (BY4741)
1 | CC(C)(C)n1nc(-c2ccc(Cl)cc2)c2c(N)ncnc21 | 0.924 (inactive) | 0.489 | 0.899 (inactive) | 0.358 (inactive) | 1.03 (inactive) | 0.757 (inactive)
2 | CCCOc1ccc(C(=O)NNC(=S)NC(=O)CC)cc1 | 1.17 (inactive) | 1.22 (inactive) | 1.05 (inactive) | 1.21 (inactive) | 2.42 | 1.77 (inactive)
3 | C/C(=N\NC(=O)c1ccc(C(C)(C)C)cc1)c1ccccn1 | 0.97 (inactive) | 0.975 (inactive) | 1 (inactive) | 1.47 (inactive) | 0.921 (inactive) | 0.905 (inactive)
4 | Cc1cc(C(=O)Nc2nc(-c3ccccn3)cs2)ccc1[N+](=O)[O-] | 0.965 (inactive) | 0.967 (inactive) | 0.981 (inactive) | 0.918 (inactive) | 1.01 (inactive) | 0.913 (inactive)
5 | CC(=O)SC(C[N+](=O)[O-])c1cn(C(C)=O)c2ccccc12 (centres undefined) | 0.785 (inactive) | 1.08 (inactive) | 0.77 (inactive) | 0.93 (inactive) | 1.48 (inactive) | 1 (inactive)
6 | Cc1ccc(S(=O)(=O)c2ncccc2[N+](=O)[O-])cc1 | 0.701 (inactive) | 0.924 (inactive) | 0.853 (inactive) | 0.87 (inactive) | 1.33 (inactive) | 1 (inactive)
7 | CCCCC(=O)NNC(=S)NC(=O)c1ccc(C)cc1 | 1.25 (inactive) | 1.27 (inactive) | 1.12 (inactive) | 1.02 (inactive) | 2.75 | 1.66 (inactive)
8 | Cc1ccc(C(=O)NNC(=S)NC(=O)COc2ccccc2)cc1 | 1.08 (inactive) | 1.19 (inactive) | 1 (inactive) | 1.34 (inactive) | 1.93 | 1.28 (inactive)
9 | O=C1ON=C(c2ccccc2)/C1=C/c1ccco1 | 1.09 (inactive) | 1.02 (inactive) | 0.866 (inactive) | 1.4 (inactive) | 1.37 (inactive) | 1.32 (inactive)
10 | O=[N+]([O-])c1cc(S(=O)(=O)C(F)(F)F)ccc1Sc1nc2ccccc2s1 | 1.02 (inactive) | 1.03 (inactive) | 1.09 (inactive) | 1.09 (inactive) | 2.03 | 1.03 (inactive)
11 | Cc1ccc(S(=O)(=O)c2ccc([N+](=O)[O-])cn2)cc1 | 1.36 (inactive) | 0.894 (inactive) | 1.17 (inactive) | 1.62 | 1.65 | 1.05 (inactive)
12 | CCSc1nnc(NC(=O)c2ccccn2)s1 | 1.05 (inactive) | 0.968 (inactive) | 0.982 (inactive) | 0.897 (inactive) | 1.13 (inactive) | 0.946 (inactive)
13 | O=C(OCn1ncc(Br)c(Br)c1=O)c1c(F)cccc1F | 0.911 (inactive) | 0.936 (inactive) | 0.921 (inactive) | 1.48 (inactive) | 1.31 (inactive) | 0.865 (inactive)
14 | c1ccc(-c2cccc(-c3ccccn3)n2)nc1 | 0.833 (inactive) | 0.903 (inactive) | 0.958 (inactive) | 0.73 (inactive) | 1.41 (inactive) | 0.815 (inactive)
15 | COc1ccc([N+](=O)[O-])c(S(=O)(=O)c2ccc(Cl)cc2)n1 | 1.28 (inactive) | 0.841 (inactive) | 1.31 (inactive) | 0.893 (inactive) | 2.87 | 1.1 (inactive)
16 | CN1CCN(C(c2ccc(C(F)(F)F)cc2)c2ccc3cccnc3c2O)CC1 (centres undefined) | 0.91 (inactive) | 0.878 (inactive) | 0.972 (inactive) | 0.725 (inactive) | 1.35 (inactive) | 0.87 (inactive)
17 | O=C1ON=C(c2ccccc2)/C1=C\c1ccco1 | 1.13 (inactive) | 0.921 (inactive) | 1 (inactive) | 1.28 (inactive) | 1.95 | 0.924 (inactive)

Row | Compound | fold change (YNL142W) | fold change (YBR084C-A) | fold change (YCL025C) | fold change (YCR005C) | fold change (YKL103C) | fold change (BY4741)
18 | N/C(Cc1ccc(Cl)cc1)=N\OC(=O)c1cccc2ccccc12 | 1.22 (inactive) | 0.913 (inactive) | 0.919 (inactive) | 2.47 | 1.44 (inactive) | 1.27 (inactive)
19 | CC(Oc1ccc(Cl)cc1)C(=O)NNC(=S)NC(=O)c1ccco1 (centres undefined) | 1.33 (inactive) | 1.09 (inactive) | 0.906 (inactive) | 1.21 (inactive) | 2.14 | 1.49 (inactive)
20 | CCc1ccc(OCC(=O)NNC(=S)NC(=O)C2CC2)c(Br)c1 | 1.15 (inactive) | 1.09 (inactive) | 1.03 (inactive) | 1.17 (inactive) | 2.4 | 1.54 (inactive)
21 | Cc1ccc(/C=C2/C(=O)ON=C2c2ccccc2)o1 | 1.23 (inactive) | 0.942 (inactive) | 0.837 (inactive) | 1.47 (inactive) | 1.61 | 1.42 (inactive)
22 | COc1ccc([N+](=O)[O-])c(S(=O)(=O)c2ccccc2)n1 | 0.958 (inactive) | 0.944 (inactive) | 1.08 (inactive) | 0.91 (inactive) | 1.86 | 0.935 (inactive)
23 | COc1ccc(/C=C/C(=O)NC(=S)NNC(=O)c2cnccn2)cc1 | 1.27 (inactive) | 0.936 (inactive) | 1.01 (inactive) | 1.05 (inactive) | 1.51 | 1.19 (inactive)
24 | O=C(OCn1ncc(Br)c(Br)c1=O)c1ccc(F)cc1 | 1.06 (inactive) | 1.02 (inactive) | 0.996 (inactive) | 1.68 | 1.76 | 0.946 (inactive)
25 | O=C(Oc1ccnc2cc(Cl)ccc12)N1CCCCCC1 | 1.97 | 1.09 (inactive) | 1.78 | 0.6 (inactive) | 0.97 (inactive) | 0.878 (inactive)
26 | O=[N+]([O-])c1cc(O)c2ncccc2c1 | 0.761 (inactive) | 0.972 (inactive) | 0.835 (inactive) | 0.721 (inactive) | 1.13 (inactive) | 0.838 (inactive)
27 | O=C(NC(=S)NNC(=O)c1cnccn1)c1ccc(F)cc1 | 1.23 (inactive) | 0.875 (inactive) | 1.02 (inactive) | 0.816 (inactive) | 1.54 | 1.1 (inactive)
28 | O=C(Oc1c(Cl)cc(Cl)c2cccnc12)c1ccco1 | 0.881 (inactive) | 1.14 (inactive) | 0.784 (inactive) | 1.2 (inactive) | 1.37 (inactive) | 1.03 (inactive)
29 | O=[N+]([O-])c1cc(Cl)c2cccnc2c1O | 1.14 (inactive) | 1.05 (inactive) | 1.27 (inactive) | 0.922 (inactive) | 1.43 (inactive) | 0.935 (inactive)
30 | CC1=NN(c2ccccc2)C(=O)C1C(c1ccccc1[N+](=O)[O-])C(C#N)C#N (centres undefined) | 1.1 (inactive) | 1.09 (inactive) | 0.965 (inactive) | 1 (inactive) | 1.82 | 1.12 (inactive)
31 | O=C(Oc1c(Cl)cc(Cl)c2cccnc12)c1cccc([N+](=O)[O-])c1 | 1.08 (inactive) | 1.18 (inactive) | 1.16 (inactive) | 1.03 (inactive) | 1.56 | 0.946 (inactive)
32 | O=C(OCC(=O)N1CCN(C(=O)c2ccco2)CC1)c1cc(-c2cccc(Br)c2)nc2ccccc12 | 1.05 (inactive) | 0.779 (inactive) | 1.14 (inactive) | 1.29 (inactive) | 1.33 (inactive) | 0.913 (inactive)
33 | Cc1ccc(C2=NOC(=O)/C2=C\c2ccc(C)o2)cc1 | 1.11 (inactive) | 0.943 (inactive) | 0.812 (inactive) | 1.25 (inactive) | 1.2 (inactive) | 1.8 (inactive)
34 | O=[N+]([O-])c1ccc(S(=O)(=O)c2cccc(C(F)(F)F)c2)nc1 | 1.26 (inactive) | 0.793 (inactive) | 0.901 (inactive) | 1.32 (inactive) | 1.49 (inactive) | 1.08 (inactive)
